From patent publication US20210283099A1, “CDC7 KINASE INHIBITORS AND USES THEREOF” (SLOAN-KETTERING INSTITUTE FOR CANCER RESEARCH, priority 2010, published 2021) come the findings set out here.

The structures appear in SMILES notation.

The assay has as its system HeLa cells. The assay is described as follows: S phase checkpoint western blot analysis. It is filed as cell-based, human. The note with it: SDS-PAGE and western blot. How it is done:
FIG. 15. […] HeLa cells were incubated in the presence of granaticin A or carrier control (DMSO) for the indicated times and whole cell extracts were subjected to SDS-PAGE and western blot analysis. Asyn=asynchronously growing HeLa cells. HU=HeLa cells exposed to hydroxyurea for the indicated time. HU was used as a control for DNA damaging agent that is known to […] the DNA damage checkpoint response. Again, we observed that Mcm2 mobility is shifted in the cells treated with granaticin A. MCM2 mobility is not affected by HU. Activation of the DNA damage/replication checkpoint correlates with ATM/ATR dependent phosphorylation of Chk1 at Ser345.
On the technique in general: A western blot detects proteins with antibodies after separation by electrophoresis.

For the compound `NC(=O)NO` [HU, hydroxyurea, reference compound], the Mcm2 mobility result was “not affected”.
